This note sets out measurements from article PMC10175918 (Communications Biology, 2023).

Assay [1] has as its target T1, urotensin-II receptor (UTS2R) (Homo sapiens, UniProt Q9UKP6).
T1 construct: expressed in transfected cells; host or cells: HEK293A
T1 sequence (Q9UKP6 1-389): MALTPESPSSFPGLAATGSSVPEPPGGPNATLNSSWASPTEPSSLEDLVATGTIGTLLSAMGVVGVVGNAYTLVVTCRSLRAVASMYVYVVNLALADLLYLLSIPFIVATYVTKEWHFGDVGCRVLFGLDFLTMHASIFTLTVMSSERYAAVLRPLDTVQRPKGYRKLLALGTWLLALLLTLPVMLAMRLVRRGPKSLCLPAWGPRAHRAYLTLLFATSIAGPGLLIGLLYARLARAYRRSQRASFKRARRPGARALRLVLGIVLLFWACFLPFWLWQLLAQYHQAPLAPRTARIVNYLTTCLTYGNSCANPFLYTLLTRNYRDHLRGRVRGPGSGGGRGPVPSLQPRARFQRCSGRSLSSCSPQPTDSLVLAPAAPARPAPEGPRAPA
Put plainly: TGFα-shedding assay, concentration-response on UTS2R (endogenous G protein), with or without urantide. The conditions noted are these: for UTS2R activation: TGFα-shedding, screening 10 μM and response curves (Fig. 1a, Supplementary Fig. 1a). The class given is cell-based.

Assay [2] addresses T2, FLAG-UTS2R (urotensin-II receptor) (human) (UniProt Q9UKP6).
T2 sequence: T1 sequence (Q9UKP6 1-389)

For orientation: Emax means the maximal effect, on the per cent scale that the assay sets.

As for `N#C[C@@]1(c2ccc3c(N)ncnn23)O[C@H](CO)[C@@H](O)[C@H]1O` [GS-441524], the UTS2R activation result in assay [1] is on record as “no effect on UTS2R activation”.

Take `CC(C)[C@H](NC(=O)[C@@H]1CSSC[C@H](NC(=O)[C@H](CC(=O)O)NC(=O)[C@@H]2CCCN2C(=O)[C@@H](NC(=O)[C@@H](N)CCC(=O)O)[C@@H](C)O)C(=O)N[C@@H](Cc2ccccc2)C(=O)N[C@@H](Cc2c[nH]c3ccccc23)C(=O)N[C@@H](CCCCN)C(=O)N[C@@H](Cc2ccc(O)cc2)C(=O)N1)C(=O)O` [UT2]: the maximum response (Emax) in assay [1] (WT UTS2R, without chimeric Gα protein, read-out: Emax) was found to be 59 ± 0.7%. In addition, the activation at 0.1 µM in assay [1] (compound concentration Log10 (M) -7, without urantide, read-out: UTS2R activation (%AP-TGFα release)) came to 59.6%. Further, in assay [1] (compound concentration Log10 (M) -8, without urantide, read-out: UTS2R activation (%AP-TGFα release)), the activation at 0.01 µM was determined as 60.1%. In assay [1] (compound concentration Log10 (M) -9, without urantide, read-out: UTS2R activation (%AP-TGFα release)), the activation at 0.001 µM was determined as 58.8%. Moreover, the activation at 0.0001 µM in assay [1] (compound concentration Log10 (M) -10, without urantide, read-out: UTS2R activation (%AP-TGFα release)) came out at 51.6%. Further, in assay [1] (compound concentration Log10 (M) -11, without urantide, read-out: UTS2R activation (%AP-TGFα release)), the activation at 10 pM was found to be 18.4%.

As to `C[C@H](NP(=O)(O)OC[C@H]1O[C@@](C#N)(c2ccc3c(N)ncnn23)[C@H](O)[C@@H]1O)C(=O)O` [GS-704277], the UTS2R activation result in assay [1] is recorded as “no effect on UTS2R activation”.

In assay [2], ETPDCFWKYCV [urotensin-II (UT2), endogenous peptidic ligand of UTS2R] had a TGFα-shedding assay (AP-TGFα release), untagged UTS2R in HEK293A cells: Emax of receptor activation by UT2 (%AP-TGFα release) of 59 and a TGFα-shedding assay (AP-TGFα release), untagged UTS2R in HEK293A cells: pEC50 of receptor activation by UT2 of 10.7.
